Assay results taken from patent EP4650362A1, “NEUROPROTECTIVE PSD-95 POLYPEPTIDE INHIBITOR AND USE THEREOF” (Beijing Tuo Jie Biopharmaceutical Co. Ltd., priority 2023, dated 2024).
Where two headings read alike, the source gives them in different places. Non-standard residues stand in square brackets, D forms with d. Residues, ends and D or L forms follow the SMILES beside them. Chg = N[C@H](C(=O)O)C1CCCCC1; Tle = CC(C)(C)[C@H](N)C(=O)O; Dab = NCC[C@H](N)C(=O)O; Aib = CC(C)(N)C(=O)O

Columns and labels:
[1] = molecular target: T1, human PSD95-PDZ2 (Homo sapiens, UniProt P78352); assay: competitive ELISA, affinity for human PSD95-PDZ2; type: binding; conditions: for IC50: competitive ELISA against 0.3 µM Biotin-NA-1, error of this test within three times, read-out: IC50
T1 construct: PDZ2 (155-249, the Flag-His-Avitag-TEVsite tag is italicized); made in house; host or cells: E. coli BL21-DE3 (PET vector)
Description: The objective of this test example was to determine the affinities of polypeptide compounds for human PSD95-PDZ2 using competitive ELISAs.
The amino acid sequence of PDZ2 protein was designed using human PSD95 (Uniprot Entry: P78352) as a template for PDZ: PDZ2 (155-249, the Flag-His-Avitag-TEVsite tag is italicized and was subsequently used for purification and biotinylation): […]
[…] (SEQ ID NO. 62). The PDZ2 gene was constructed onto a PET expression vector, and induced expression was performed using BL21-DE3 E. coli cells under conditions of 37 °C and 1 mM IPTG 4 h. Then centrifugation was performed at 10,000 g at 4 °C for 10 min, and the cell pellets were collected, resuspended in 1× PBS solution, and then lysed using a homogenizer. The lysate was centrifuged at high speed, and the supernatant was collected and filtered through a 0.45 µm membrane. A Ni-Sepharose affinity column was equilibrated with 5 column volumes of a 20 mM phosphate buffer (pH 8.0). The sample was centrifuged at high speed to remove impurities and loaded onto the column for binding. The column was rinsed with the 20 mM phosphate buffer until the A280 reading dropped to the baseline. Gradient elution was then performed with the 20 mM phosphate buffer and 0-500 mM imidazole. A protein was collected, and whether it was the target protein was determined. The purified sample described above was buffer-exchanged into 1× PBS solution, and the resulting solution was concentrated to a volume of 2 mL and further purified using a Superdex200 gel chromatography column (GE) equilibrated with 1× PBS. The target peak was collected and aliquoted for later use.
PSD95-PDZ2 (the tag was removed by TEV enzyme) was diluted with 1× PBS buffer to 1 µg/mL, added to a 96-well microplate (Corning, 9018, 25/box 96-well clear flat bottom plate) at 100 µL/well, and left to stand overnight at 4 °C for 16-20 h. After the liquid was discarded, the plate was washed three times with PBST (pH 7.4, 0.05% Tween-20) buffer, and a 4% BSA blocking solution diluted with PBST buffer was then added (300 µL/well). The plate was blocked by incubation in an incubator at 37 °C for 1 h. After the blocking was complete, the blocking solution was discarded, and the plate was washed three times with PBST buffer. Biotin-NA-1, at a constant concentration of 0.3 µM, and the test compounds, having a starting concentration of 100 µM and serially diluted ten-fold with PBS buffer to seven concentrations (100, 10, 1, 0.1, 0.01, 0.001, 0.0001, and 0 µM), were then added, and the plate was incubated in an incubator at 37 °C for 1 h. After the incubation was complete, the reaction solutions in the microplate were discarded, and the plate was washed three times with PBST. 100 µL of HRP-SA secondary antibody (diluted at 1:2000) was added to each well, and the plate was incubated at 37 °C for 1 h. After the plate was washed three times with PBST, 100 µL of TMB chromogenic substrate was added. The plate was incubated at room temperature for 1-3 min, and 100 µL of 1 M sulfuric acid was added to stop the reaction.
The absorbance at 450 nm was measured using a SpectraMax M5 microplate reader, and non-linear fitting was performed using GraphPad Prism 9 to calculate the binding IC50 values of the test compounds to PSD95-PDZ2 protein.

[2] = molecular target: T1, human PSD95-PDZ2; assay: binding ELISA with Biotin-PDZ2; conditions: for EC50: plate coated with 2 µM test compound, Biotin-PDZ2 titrated, read-out: EC50 (PDZ2)
Description: (§1) The three PDZ domains in the PSD95 protein are structurally similar. Binding to the PDZ1 and PDZ2 domains can effectively block PSD95-mediated neuroexcitotoxicity. However, the biological function of binding to the PDZ3 domain is unclear. Therefore, to avoid potential safety concerns, this test example assessed the selectivity of polypeptide compounds for the PDZ2 and PDZ3 domains, aiming to identify polypeptide compounds that specifically bind to the PDZ2 domain. Site-specifically biotinylated Biotin-PDZ2 and Biotin-PDZ3 proteins were used for binding ELISA assays. […] After the blocking was complete, the blocking solution was discarded, and the plate was washed three times with PBST buffer. […] After the incubation was complete, the reaction solutions in the microplate were discarded, and the plate was washed three times with PBST. 100 µL of HRP-SA secondary antibody (diluted at 1:2000) was added to each well, and the plate was incubated at 37 °C for 1 h. After the plate was washed three times with PBST, 100 µL of TMB chromogenic substrate was added. […] The absorbance at 450 nm was measured using a SpectraMax M5 microplate reader, and the binding EC50 values of the test compounds to Biotin-PDZ2 or Biotin-PDZ3 were calculated using GraphPad Prism 9. […] The abilities of polypeptide compounds to bind to human PSD95-PDZ2 and human PSD95-PDZ3
Target sequence in this assay (P78352 155-249): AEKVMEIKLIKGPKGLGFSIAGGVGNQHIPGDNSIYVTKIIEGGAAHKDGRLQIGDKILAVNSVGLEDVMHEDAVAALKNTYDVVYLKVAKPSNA

[3] = molecular target: T2, human PSD95-PDZ3 (Homo sapiens, UniProt P78352); assay: binding ELISA with Biotin-PDZ3; conditions: plate coated with 2 µM test compound, Biotin-PDZ3 titrated; read-out: EC50 (PDZ3)
T2 construct: PDZ3 (309-401, Flag-His-Avitag-TEVsite tag); made in house
T2 sequence (P78352 309-401): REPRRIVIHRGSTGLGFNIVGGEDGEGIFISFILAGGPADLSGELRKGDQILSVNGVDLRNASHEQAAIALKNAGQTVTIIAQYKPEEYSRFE
Description: as §1, with “domain. The expression and purification of PSD95-PDZ3 protein were carried out with reference to the steps in 3.1.2. The amino acid sequence of PDZ3 protein: […]” for “domain.”, “μL” for “µL”

[4] = pharmacokinetic study in rats, single intravenous bolus injection; type: in vivo, SD rats; conditions: rats, intravenous bolus injection over 10 min, 3 nmol/g, n = 3
Description: With male SD rats as test animals, the pharmacokinetic behavior of polypeptide compounds administered via single intravenous bolus injection in rats (plasma) was studied.
Male SD rats weighing 170 to 200 grams and aged 4-6 weeks were purchased from Beijing Vital River Laboratory Animal Technology Co., Ltd. The polypeptide compounds were dissolved in 1× PBS, and the polypeptide compound solutions were then administered via intravenous bolus injection over 10 min at a dose of 3 nmol/g, with three animals per group. At each of the time points of 2 min, 8 min, 15 min, 30 min, 45 min, 60 min, and 120 min after the end of bolus injection, 0.2 mL of blood was collected and transferred to an EDTA-K2 anticoagulation centrifuge tube. The whole blood sample was centrifuged at 4 °C at 4000 g for 5 min, and a plasma sample was obtained by separation and cryopreserved at -80 °C.
The pharmacokinetic parameters of polypeptide compound 22, administered via intravenous bolus injection, in rats were determined using a similar method, with the difference being that an enzyme inhibitor was added immediately after blood collection.
The plasma concentrations of the test compounds were determined using the method in Test Example 3.4.3. Plasma concentration-time curves were plotted, and the pharmacokinetic parameters were calculated using PKSolver software. The experimental results are shown in Table 5-1, Table 5-2, and FIG. 3.

SMILES	IC50 [1] [µM]	EC50 [2] [µM]	EC50 [3] [µM]	AUC(0-inf) ([4]; male, SD, rat, plasma) [ng·h/mL]	MRT ([4]; male, SD, rat, plasma) [min]	AUC(0-t) ([4]; male, SD, rat, plasma, read-out: AUC(0-t)) [ng·h/mL]	Cmax ([4]; male, SD, rat, plasma, read-out: Cmax) [ng/mL]	half-life ([4]; male, SD, rat, plasma, read-out: T1/2 (converted)) [min]	AUClast/dose [4]	rIC50 ([1]; ratio of the affinity of the polypeptide compound to the affinity of NA-1)	selectivity for the PSD95-PDZ2 domain ([2]; PDZ2 versus PDZ3, conclusion in words)	Specificity for PDZ2 (PDZ3/PDZ2) ([2]; ratio PDZ3/PDZ2)	AUC(0-t) [4] [ng·h/mL]	AUC(inf) [4] [ng·h/mL]	Cmax [4] [ng/mL]	MRTO-inf [4] [min]	T1/2 [4] [min]
CC(C)[C@H](NC(=O)[C@H](CC(=O)O)NC(=O)[C@H](CO)NC(=O)[C@@H](NC(=O)[C@@H](NC(=O)[C@@H](NC(=O)[C@H](CCN)NC(=O)C(C)(C)NC(=O)CNC(=O)[C@@H](CCCNC(=N)N)NC(=O)[C@@H](CCCNC(=N)N)NC(=O)[C@@H](CCCNC(=N)N)NC(=O)[C@@H](CCC(N)=O)NC(=O)[C@@H](CCCNC(=N)N)NC(=O)[C@@H](CCCNC(=N)N)NC(=O)[C@@H](CCCCN)NC(=O)[C@@H](CCCCN)NC(=O)[C@@H](CCCNC(=N)N)NC(=O)CNC(=O)[C@H](N)Cc1ccc(O)cc1)[C@@H](C)O)C1CCCCC1)C(C)(C)C)C(=O)O [Polypeptide compound 19, y-G-r-k-k-r-r-q-r-r-r-G-Aib-Dab-T-Chg-Tle-S-D-V] (H-[dY]G[dR][dK][dK][dR][dR][dQ][dR][dR][dR]G[Aib][Dab]T[Chg][Tle]SDV-OH)	0.612	0.029	> 1000	11800	57.6	10200	19600	43.8	1345								
CC(C)[C@H](NC(=O)[C@H](CC(=O)O)NC(=O)[C@H](CO)NC(=O)[C@@H](NC(=O)[C@@H](NC(=O)[C@@H](NC(=O)CNC(=O)[C@@H](CCCNC(=N)N)NC(=O)[C@@H](CCCNC(=N)N)NC(=O)[C@@H](CCCNC(=N)N)NC(=O)[C@@H](CCC(N)=O)NC(=O)[C@@H](CCCNC(=N)N)NC(=O)[C@@H](CCCNC(=N)N)NC(=O)[C@@H](CCCCN)NC(=O)[C@@H](CCCCN)NC(=O)[C@@H](CCCNC(=N)N)NC(=O)CNC(=O)[C@H](N)Cc1ccc(O)cc1)[C@@H](C)O)C1CCCCC1)C(C)(C)C)C(=O)O [Polypeptide compound 21, y-G-r-k-k-r-r-q-r-r-r-G-T-Chg-Tle-S-D-V] (H-[dY]G[dR][dK][dK][dR][dR][dQ][dR][dR][dR]GT[Chg][Tle]SDV-OH)	0.8	0.018	> 1000						745	0.88	comparable to that of the positive drugs NA-1 and NoNO42	>10000	5660	6396	15643	48	43.2
